Where “and” joins values, the source holds several entries; their conditions need not be identical. Identical values can stand only once. Entries after “also recorded” stand apart in the source; their conditions may differ. Like-named read-outs stand apart in the source and are kept apart here. Marks after values point to notes of the source that are not given here.
Experiments:
[1] = CRA trough plasma concentrations (LC-MS/MS); assay type: in vivo, human
Protocol: Cis retinoic acid PK studies were performed during the first 2 cycles of therapy. Serial sampling of venous blood was obtained at the following times: pre-treatment on Cycle 1, days 1, 2, 3, 4, 8, and 15 and pre-treatment on Cycle 2, days 1, 15, 16, 17, and 22. Blood samples were collected in heparinised tubes and were processed by centrifugation within 30 min at 1000 g at 4 °C for 10 min. Plasma was stored at −20 °C until analysis using a validated LC-MS/MS analytical method. Briefly, 1 ml plasma was extracted with 5 ml of acetonitrile/n-Butyl chloride (1 : 4, v/v) containing paclitaxel. Cis retinoic acid was separated on a Waters (Milford, MA, USA) X-Terra MS C18 (50 × 2.1 mm, 3.5 μm) column with 0.1% formic acid in acetonitrile/10 mM ammonium acetate (80 : 20, v/v) using isocratic flow of 0.2 ml min^−1 for 5 min. Cis retinoic acid was quantitated over the range of 5–2000 ng ml^−1. Quality control samples were assayed with each analytic run and were within 15% of the nominal concentration. […] Cmin at steady state (Css,min) was calculated for each patient by taking the average of the Cmin during each cycle.
Descriptive statistics were used to summarise patient characteristics, efficacy, and safety data. […] Differences between CRA Css,min during each cycle were evaluated statistically by use of a non-parametric, 2-sided Wilcoxon signed rank test for paired observations. […]

[2] = parameters: method as in Thurn et al, 2011; details: CRA after administration of a similar dose; ref Thurn et al, 2011; cited from earlier work
[3] = Entinostat plasma pharmacokinetics (LC-MS/MS, non-compartmental analysis); assay type: in vivo, human; details: for Cls/F (apparent oral clearance) / half-life / Tmax / Cmax / AUC: plasma; for half-life / Tmax / Cmax / AUC: human; for AUC: read-out: AUC0−∝
Protocol: Pharmacokinetic studies were performed during the first 2 cycles of therapy. […] Blood samples were collected in heparinised tubes and were processed by centrifugation at 1000 g for 10 min. Plasma was stored at −20 °C until analysis. […] Quality control samples were assayed with each analytic run and were within 15% of the nominal concentration. Individual PK parameters were estimated by standard non-compartmental analysis, which was performed using WinNonlin, Version 5.3 (Pharsight Corporation, Mountain View, CA, USA; [Gibaldi, 1982]). Descriptive statistics were used to summarise patient characteristics, efficacy, and safety data. Pharmacokinetic parameters were summarised by descriptive statistics using dose-normalised parameters for dose-dependent parameters and actual values for dose-independent parameters. Kruskal–Wallis analysis of variance by ranks or the Wilcoxon rank-sum were used to compare the differences in entinostat PK parameters and CRA Css,min as a function of dose level. […] Statistical calculations were performed with the software package JMP, Version 4.0.4 (SAS Institute, Cary, NC, USA). The a priori level of significance was set at P<0.05.

[4] = tested on: human prostate cancer cell line (LAPC4); test: PSA secretion and PSA gene expression in LAPC4 cells in vitro; assay type: cell-based
Source text: The sudden rise of tumour marker CA 19-9 in a patient with unresectable pancreatic cancer was worrisome for a rapid clinical progression. However, the CT scan documented stable disease for 6 months. […] An increase in the PSA slope occurred while on treatment, with a rapid deflection following treatment discontinuation. […] This observation poses some challenges as in the clinical development of ‘differentiation’ therapies increasing tumour marker levels may not be a significant sign for disease progression, but rather a potential signal of biological activity. […] Accordingly, the use of tumour markers for disease response assessment is evolving and needs to be further validated in prospective studies. Recently, the Prostate Cancer Clinical Trials Working Group recommended that in most clinical trials early changes in PSA should not be acted on without other evidence of disease progression, and treatment should be continued for at least 12 weeks to ensure adequate drug exposure ([Scher et al, 2008]).

[5] = entinostat oral once weekly (fasting) with 1 mg kg^−1 CRA
Protocol: A starting dose of 4 mg m^−2 and a fixed CRA dose at 1 mg kg^−1 per dose level were planned. If a patient experienced toxicities the next lower level was 2 mg m^−2. […] Originally six dose levels were included ([…]). Each cohort consisted of three patients according to the standard 3+3 design, where if one patient experiences a DLT, three additional patients are enroled.
Dose-limiting toxicity was defined as first cycle adverse events ⩾grade 3 non-haematological or ⩾grade 4 haematological toxicities. The MTD was defined as one dose level below the dose at which ⩾ two of six patients experience DLT. […] Tumour response assessment was performed every two cycles (2 months) by both clinical assessment and imaging studies.

[6] = tested on: acetylated H3 in tumour tissue; test: Western blot of tumour FNA: acetylated H3; assay type: in vivo, human; details: FNA of liver lesion, patient with metastatic prostate cancer; entinostat with CRA
Protocol: (§1) A pre-treatment sample was taken on day 15. During Cycle 2, and subsequent cycles, samples were collected pre-treatment on days 1 and 15. […] Peripheral blood mononuclear cells were collected from patients according to the study calendar schedule. For isolation of PBMCs, 10 ml of blood were collected in CPT tubes (Vacutainer CPT Cell Preparation Tube with NC: 0.45 ml; Ficoll: 1.0 ml; Becton Dickinson, Franklin Lakes, NJ, USA) and plasma was separated by centrifugation. Differential centrifugation of plasma was performed to isolate PBMCs, which were kept frozen at −80 °C until the end of the study schedule for each patient. Fine needle aspiration (FNA) was planned on Cycle 1, day 22 in patients with accessible tumours to assess changes in acetylation and signalling pathway expression. For western blotting, PBMCs and tumour tissue were lysed in M-PER mammalian protein extraction reagent (Pierce, Rockford, IL, USA) with protease inhibitor cocktail (Roche Diagnostics, Indianapolis, IN, USA), followed by brief sonication. Proteins (20 μg per lane) from cell lysates were applied to 4–15% Tris-HCl gels (Bio-Rad, Hercules, CA, USA) and blotted with primary antibodies that were purchased from Upstate (Lake Placid, NY, USA) for anti-acetyl histone H3 and from Sigma (St Louis, MO, USA) for β-actin clone A1978, ERK, and phosphorylated ERK.

[7] = tested on: histone H3 acetylation in PBMCs; test: Western blot of histone H3 acetylation in PBMCs; assay type: in vivo, human; details: pre-treatment vs post-treatment time points, entinostat with CRA
Protocol: as §1

[8] = parameters: method as in Gore et al, 2008; details: entinostat single agent, 7- or 14-day schedule; ref Gore et al, 2008; cited from earlier work
[9] = tested on: phosphorylated ERK in tumour tissue; test: Western blot of tumour FNA: phosphorylated ERK; assay type: in vivo, human; details: FNA of liver lesion, patient with metastatic prostate cancer; entinostat with CRA
Protocol: as §1

In the case of `CC1=C(/C=C/C(C)=C/C=C/C(C)=C\C(=O)O)C(C)(C)CCC1` [CRA, 13-cis retinoic acid], the “average Css,min” value ([1]; Cycle 1, CRA 1 mg kg^−1 per day oral with entinostat) is given as 194.9 ± 103.5 ng/mL, the “average Css,min” value ([1]; Cycle 2, CRA 1 mg kg^−1 per day oral with entinostat) is given as 131.8 ± 79.3 ng/mL and the steady-state trough concentrations [2] is given as 160 ± 19 ng/mL.
In the case of `Nc1ccccc1NC(=O)c1ccc(CNC(=O)OCc2cccnc2)cc1` [entinostat], the “patients with measurable entinostat concentrations” value ([3]; 1 week post-treatment) is reported as 14 of 17, the “Cls/F (apparent oral clearance)” value ([3]; all dose levels (Total) with CRA, Cycle 1, day 1, mean±s.d., n=13) is reported as 14.9±22.0 ^c l h^−1 m^−2 and the “Cls/F (apparent oral clearance)” value ([3]; all dose levels (Total) with CRA, Cycle 1, day 1, mean±s.d., n=13, listed as Entinostat) is reported as 14.9±22.0 l h^−1 m^−2. The variability in clearance ([3]; entinostat with CRA, patients with solid tumours) was 147%, the half-life ([3]; oral, all dose levels (Total) with CRA, Cycle 1, day 1, mean±s.d., n=13, read-out: T1/2 (terminal half-life) (converted)) was 114 ± 78.2 h and the Tmax ([3]; oral, all dose levels (Total, 4 and 5 mg m^−2) with CRA, Cycle 1, day 1, median (range), 18 patients) was 0.42 h. The Cmax ([3]; po, 4 mg m^−2) was 114 ± 84 ng/mL, the Tmax ([3]; po, 4 mg m^−2) was 0.5 h and the AUC ([3]; po, 4 mg m^−2) was 587 ± 401 ng·h/mL. For the same compound, the half-life ([3]; po, 4 mg m^−2, read-out: T1/2 (converted)) was 130 ± 88.5 h, the Cmax ([3]; po, 5 mg m^−2) was 109 ± 66 ng/mL and the Tmax ([3]; po, 5 mg m^−2) was 0.25 h. For the same compound, the AUC ([3]; po, 5 mg m^−2) was 778 ± 648 ng·h/mL, the half-life ([3]; po, 5 mg m^−2, read-out: T1/2 (converted)) was 77.3 ± 31.9 h and the PSA gene expression [4] was “no change”. The “increase in PSA secretion into the culture media” value ([4]; achievable plasma concentrations of entinostat, data not shown) was 2.5 fold, the “maximum tolerated dose (MTD)” value [5] was < 5 mg m^−2 and 4 mg m^−2 and the “intra-tumoural acetylated H3” value [6] was “increased; also recorded: induction”. For the same compound, the “histone H3 acetylation in PBMCs” value [7] was “transient increased acetylation”, the Tmax [8] was no more than 1 h and the variability in clearance [8] was 24–68%. The “phosphorylated ERK protein levels in tumour” value [9] was “decreased; also recorded: inhibition”.
